Source: paper PMC12175894 (Science Advances, 2025)
Substitutions are numbered along the chain they refer to. Where two headings read alike, the source gives them in different places.

Key:
5-HT1AR F112^3.28W [1] = target: T1, 5-HT1AR F112^3.28W (Homo sapiens, UniProt P08908, F112W); assay: GloSensor cAMP assay in HEK293A cells; assay type: cell-based
T1 sequence (P08908 1-422 F112W): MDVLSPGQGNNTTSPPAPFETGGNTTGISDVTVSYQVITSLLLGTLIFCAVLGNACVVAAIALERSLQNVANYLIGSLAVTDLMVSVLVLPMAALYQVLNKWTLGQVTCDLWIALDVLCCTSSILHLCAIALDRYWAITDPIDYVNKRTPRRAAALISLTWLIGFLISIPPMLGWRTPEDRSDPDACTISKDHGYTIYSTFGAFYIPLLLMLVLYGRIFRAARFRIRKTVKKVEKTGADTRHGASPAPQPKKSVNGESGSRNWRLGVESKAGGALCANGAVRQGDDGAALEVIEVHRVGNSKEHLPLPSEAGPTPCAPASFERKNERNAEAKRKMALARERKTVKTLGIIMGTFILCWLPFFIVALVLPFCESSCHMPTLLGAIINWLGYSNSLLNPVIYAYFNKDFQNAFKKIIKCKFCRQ

[2] = target: T2, 5-HT1AR F112^3.28W + M92^2.60F (Homo sapiens, UniProt P08908, F112W/M92F); assay: β-arrestin 2 recruitment, enhanced bystander BRET in HEK293T with GRK2; assay type: cell-based; details: HEK-293T; read-out: Emax [% ± SEM], β-arrestin 2 recruitment
T2 sequence (P08908 1-422 M92F/F112W): T1 sequence (P08908 1-422 F112W) with M92F

5-HT1AR F112^3.28W [3] = target: T1, 5-HT1AR F112^3.28W; assay: as above; details: HEK-293T, read-out: Emax [% ± SEM], β-arrestin 2 recruitment
5-HT1AR F112^3.28W [4] = target: T1, 5-HT1AR F112^3.28W; assay: GloSensor inhibition of cAMP accumulation in HEK293AΔGs; assay type: cell-based; details: for Emax: read-out: Emax [% ± SEM], inhibition of cAMP accumulation
5-HT2AR = target: T3, 5-HT2AR (Homo sapiens, UniProt P28223); assay: Radioligand competition, displacement of [3H]ketanserin; assay type: binding
T3 construct: whole cells for IP-One
T3 sequence (P28223 whole entry): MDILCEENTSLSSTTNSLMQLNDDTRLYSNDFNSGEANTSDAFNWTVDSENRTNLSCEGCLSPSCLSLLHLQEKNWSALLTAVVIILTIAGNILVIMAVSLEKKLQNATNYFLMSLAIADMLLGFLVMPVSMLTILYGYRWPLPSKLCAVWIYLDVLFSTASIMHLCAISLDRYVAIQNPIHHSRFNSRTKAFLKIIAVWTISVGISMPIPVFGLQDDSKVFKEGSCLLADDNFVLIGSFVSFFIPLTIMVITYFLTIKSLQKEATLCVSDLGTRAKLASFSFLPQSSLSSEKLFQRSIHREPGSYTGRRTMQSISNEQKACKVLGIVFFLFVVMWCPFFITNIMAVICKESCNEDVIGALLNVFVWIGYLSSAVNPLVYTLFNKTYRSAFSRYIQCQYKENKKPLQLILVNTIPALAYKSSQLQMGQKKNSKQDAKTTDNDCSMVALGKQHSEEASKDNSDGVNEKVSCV

male C56BL/6 mice [5] = assay: von Frey assay, hind paw mechanical thresholds; assay type: in vivo, mouse; details: 10 mg/kg i.p., 30 min after injection
5-HT1AR wildtype [6] = target: T4, 5-HT1AR wildtype (Homo sapiens, UniProt P08908); assay: GloSensor inhibition of cAMP accumulation in HEK293AΔGs; assay type: cell-based
T4 construct: host or cells: HEK293T, HEK293A, HEK293AΔGs, HEK293AΔGi/o, HEK293AΔARRB1/B2
T4 sequence (P08908 1-422): T1 sequence (P08908 1-422 F112W) with W112F

male C56BL/6 mice [7] = assay: Hargreaves test; assay type: in vivo, mouse; details: for response latency, Hargreaves: 10 mg/kg i.p.
5-HT1AR wildtype [8] = target: T4, 5-HT1AR wildtype; assay: β-arrestin 2 recruitment, enhanced bystander BRET in HEK293T with GRK2; assay type: cell-based; details: HEK-293T; read-out: Emax [% ± SEM], β-arrestin 2 recruitment
5-HT1AR = target: T5, 5-HT1AR (Homo sapiens, UniProt P08908); assay: GloSensor cAMP assay in HEK293A cells deficient of β-arrestins; assay type: cell-based; parameters: host or cells: HEK293T, HEK293A, HEK293AΔGs, HEK293AΔGi/o, HEK293AΔARRB1/B2
T5 sequence (P08908 1-422): T1 sequence (P08908 1-422 F112W) with W112F

male C56BL/6 mice [9] = assay: 50°C tail flick; assay type: in vivo, mouse; details: 10 mg/kg i.p.
male C56BL/6 mice [10] = assay: Accelerating rotarod; assay type: in vivo, mouse
[11] = HEK293-A, read-out: Emax [%±SEM], inhibition of cAMP accumulation
[12] = HEK293-A; read-out: Emax [%±SEM], inhibition of cAMP accumulation

COc1ccccc1OCCNCCCOc1ccc2c(c1)NC(=O)CO2 [ST171]
Emax (5-HT1AR F112^3.28W [1]; [11]): 77 ± 9%
EC50 (5-HT1AR F112^3.28W [1]; HEK293A, GloSensor, F112W; read-out: EC50 left [nM±SEM], inhibition of cAMP accumulation): 1.7 ± 0.5 nM
Emax [2]: < 5%
Emax (5-HT1AR F112^3.28W [3]): < 5%
EC50 (5-HT1AR F112^3.28W [4]; HEK293AΔGs, F112W, read-out: EC50 [nM ± SEM], inhibition of cAMP accumulation): 2.2 ± 0.3 nM
Emax (5-HT1AR F112^3.28W [4]): 69 ± 8%
Ki (5-HT2AR; 5-HT2A, read-out: pKi (converted)): 260 nM
Ki (5-HT2AR; 5-HT2AR, HEK 293T membranes, read-out: Ki [nM ± SEM]): 280 ± 30 nM
mechanical thresholds, von Frey (male C56BL/6 mice [5]): significantly increasing mechanical thresholds
EC50 (5-HT1AR wildtype [6]; HEK293AΔGs, wildtype, read-out: EC50 [nM ± SEM], inhibition of cAMP accumulation): 5.3 ± 0.8 nM
Emax [% ± SEM], inhibition of cAMP accumulation (5-HT1AR wildtype [6]; HEK293AΔGs, wildtype, relative to serotonin): 74 ± 3%
Emax (5-HT1AR wildtype [6]; read-out: Emax [% ± SEM], inhibition of cAMP accumulation, HEK293AΔGs, wildtype, relative to serotonin): 73%
response latency, Hargreaves (male C56BL/6 mice [7]): antinociceptive
antinociception, Hargreaves, lower doses (male C56BL/6 mice [7]; 1 and 5 mg/kg): not as antinociceptive as the 10 mg/kg dose
Emax (5-HT1AR wildtype [8]): < 5%
Emax (5-HT1AR; [11]): 60%
EC50 (5-HT1AR; HEK Δβ-arrestin, GloSensor; read-out: EC50 left [nM±SEM], inhibition of cAMP accumulation): 3.5 ± 1 nM
response latency, 50°C tail flick (male C56BL/6 mice [9]): antinociceptive
sedative effects, accelerating rotarod (male C56BL/6 mice [10]; 10 mg/kg): did not differ from control mice injected with vehicle
sedative effects, accelerating rotarod (male C56BL/6 mice [10]; 15 mg/kg): presumptive sedative effect

Cc1ccc(CNCC2(F)CCN(C(=O)c3ccc(F)c(Cl)c3)CC2)nc1 [befiradol, reference compound]
Emax (5-HT1AR F112^3.28W [1]; [12]): 96 ± 4%
Esat [%±SEM] (5-HT1AR F112^3.28W [1]; HEK293A, GloSensor, F112W): 90 ± 4%
Emax [2]: 83 ± 4%
Emax (5-HT1AR F112^3.28W [3]): 86 ± 3%
Emax (5-HT1AR F112^3.28W [4]): 95 ± 5%
Ki (5-HT2AR): 15000 nM
mechanical thresholds, von Frey (male C56BL/6 mice [5]): significantly increasing mechanical thresholds
Emax (5-HT1AR wildtype [6]; read-out: Emax [% ± SEM], inhibition of cAMP accumulation): 87 ± 3%
response latency, Hargreaves (male C56BL/6 mice [7]): antinociceptive
Emax (5-HT1AR wildtype [8]): 79 ± 1%
Emax (5-HT1AR; [12]): 89 ± 4%
Esat [%±SEM] (5-HT1AR; HEK Δβ-arrestin, GloSensor): 73 ± 5%
response latency, 50°C tail flick (male C56BL/6 mice [9]): antinociceptive
sedative effects, accelerating rotarod (male C56BL/6 mice [10]; all doses >1 mg/kg): significantly reduced the ability of the mouse to continue on the rotarod
